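Cells were grown in 96-well plates and exposed to each compound for 48 hours at five concentrations; endpoints were interpolated linearly between bracketing concentrations, or set to the highest concentration if not reached. GI50 is the concentration that inhibits growth by half. TGI: concentration producing complete growth inhibition.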
Tests used:
Assay in all cases: NCI anticancer screen, dose series, 48 h
UACC-62 melanoma = tested on: UACC-62 melanoma
M14 melanoma = tested on: M14 melanoma
HL-60(TB) leukemia = tested on: HL-60(TB) leukemia
SNB-19 CNS = tested on: SNB-19 CNS
EKVX NSCLC = tested on: EKVX NSCLC
SK-MEL-2 melanoma = tested on: SK-MEL-2 melanoma
MDA-MB-435 = tested on: MDA-MB-435
IGROV1 ovarian = tested on: IGROV1 ovarian
SK-MEL-5 melanoma = tested on: SK-MEL-5 melanoma
HCT-15 colon = tested on: HCT-15 colon
A549 NSCLC = tested on: A549 NSCLC
NCI/ADR-RES ovarian = tested on: NCI/ADR-RES ovarian
A498 renal = tested on: A498 renal
LOX IMVI melanoma = tested on: LOX IMVI melanoma
NCI-H460 lung = tested on: NCI-H460 lung
HS 578T breast = tested on: HS 578T breast
U251 CNS = tested on: U251 CNS
UO-31 renal = tested on: UO-31 renal
OVCAR-4 ovarian = tested on: OVCAR-4 ovarian
PC-3 prostate = tested on: PC-3 prostate
ACHN renal = tested on: ACHN renal
MOLT-4 leukemia = tested on: MOLT-4 leukemia
SF-295 CNS = tested on: SF-295 CNS
NCI-H226 lung = tested on: NCI-H226 lung
HCT-116 colon = tested on: HCT-116 colon
K-562 leukemia = tested on: K-562 leukemia
CCRF-CEM leukemia = tested on: CCRF-CEM leukemia
MCF7 breast = tested on: MCF7 breast
OVCAR-3 ovarian = tested on: OVCAR-3 ovarian
SF-539 CNS = tested on: SF-539 CNS
SW-620 colon = tested on: SW-620 colon
RXF 393 renal = tested on: RXF 393 renal
HOP-62 NSCLC = tested on: HOP-62 NSCLC
COLO 205 colon = tested on: COLO 205 colon
MDA-MB-231 breast = tested on: MDA-MB-231 breast
KM12 colon = tested on: KM12 colon
786-0 renal = tested on: 786-0 renal
HT29 colon = tested on: HT29 colon
SN12C renal = tested on: SN12C renal
SR leukemia = tested on: SR leukemia
SF-268 CNS = tested on: SF-268 CNS
T-47D breast = tested on: T-47D breast
HOP-92 NSCLC = tested on: HOP-92 NSCLC
OVCAR-8 ovarian = tested on: OVCAR-8 ovarian
NCI-H23 lung = tested on: NCI-H23 lung
SNB-75 CNS = tested on: SNB-75 CNS
OVCAR-5 ovarian = tested on: OVCAR-5 ovarian
UACC-257 melanoma = tested on: UACC-257 melanoma
HCC-2998 colon = tested on: HCC-2998 colon
TK-10 renal = tested on: TK-10 renal
MALME-3M melanoma = tested on: MALME-3M melanoma
NCI-H522 lung = tested on: NCI-H522 lung
RPMI-8226 leukemia = tested on: RPMI-8226 leukemia
DU-145 prostate = tested on: DU-145 prostate
SK-OV-3 ovarian = tested on: SK-OV-3 ovarian
SK-MEL-28 melanoma = tested on: SK-MEL-28 melanoma

## CCCCCCCCCCCCCCCC(=O)NS(=O)(=O)OC[C@H]1O[C@@H](n2cnc3c(N)ncnc32)[C@H](O)[C@@H]1O
UACC-62 melanoma
  GI50: 215 nM
  TGI: 599 nM
M14 melanoma
  GI50: 632 nM
  TGI: 2170 nM
HL-60(TB) leukemia
  GI50: 454 nM
  TGI: 4720 nM
SNB-19 CNS
  GI50: 19.1 nM
  TGI: 157 nM
EKVX NSCLC
  GI50: 271 nM
  TGI: 1740 nM
SK-MEL-2 melanoma
  GI50: 588 nM
  TGI: 2830 nM
MDA-MB-435
  GI50: 210 nM
  TGI: 551 nM
IGROV1 ovarian
  GI50: 37.1 nM
  TGI: 199 nM
SK-MEL-5 melanoma
  GI50: 234 nM
  TGI: 571 nM
HCT-15 colon
  GI50: < 42.4 nM
  TGI: 2110 nM
A549 NSCLC
  GI50: 1670 nM
  TGI: 3820 nM
NCI/ADR-RES ovarian
  GI50: 91.7 nM
  TGI: 3550 nM
A498 renal
  GI50: < 30 nM
  TGI: < 48 nM
LOX IMVI melanoma
  GI50: 394 nM
  TGI: 1580 nM
NCI-H460 lung
  GI50: 107 nM
  TGI: 8600 nM
HS 578T breast
  GI50: 982 nM
  TGI: 6040 nM
U251 CNS
  GI50: < 16.2 nM
  TGI: < 27.7 nM
UO-31 renal
  GI50: 339 nM
  TGI: 1330 nM
OVCAR-4 ovarian
  GI50: 39.2 nM
  TGI: 255 nM
PC-3 prostate
  TGI: < 16.6 nM
ACHN renal
  TGI: 1640 nM
MOLT-4 leukemia
  GI50: 962 nM
  TGI: 8920 nM
SF-295 CNS
  GI50: 1010 nM
  TGI: 2310 nM
NCI-H226 lung
  GI50: < 24.5 nM
  TGI: < 49.7 nM
HCT-116 colon
  GI50: 71.9 nM
  TGI: 1210 nM
K-562 leukemia
  GI50: 1650 nM
  TGI: 10000 nM
CCRF-CEM leukemia
  TGI: 10600 nM
MCF7 breast
  GI50: 509 nM
  TGI: 9770 nM
OVCAR-3 ovarian
  TGI: 124 nM
SF-539 CNS
  GI50: 118 nM
  TGI: 359 nM
SW-620 colon
  GI50: 41.2 nM
  TGI: 10100 nM
RXF 393 renal
  GI50: < 16.1 nM
  TGI: < 28.4 nM
HOP-62 NSCLC
  GI50: < 19.8 nM
COLO 205 colon
  GI50: < 15.7 nM
  TGI: < 23.8 nM
MDA-MB-231 breast
  GI50: 381 nM
  TGI: 1710 nM
KM12 colon
  GI50: < 42.1 nM
  TGI: 3010 nM
786-0 renal
  GI50: < 49.1 nM
HT29 colon
  GI50: 40.2 nM
  TGI: 342 nM
SN12C renal
  GI50: 262 nM
  TGI: 1450 nM
SR leukemia
  GI50: < 21 nM
  TGI: 4380 nM
SF-268 CNS
  GI50: < 48.1 nM
  TGI: 1280 nM
T-47D breast
  GI50: 275 nM
  TGI: 1340 nM
HOP-92 NSCLC
  GI50: < 24 nM
OVCAR-8 ovarian
  GI50: 300 nM
  TGI: 1280 nM
NCI-H23 lung
  GI50: 321 nM
  TGI: 1250 nM
SNB-75 CNS
  GI50: < 47.1 nM
  TGI: 1290 nM
OVCAR-5 ovarian
  GI50: < 15.8 nM
  TGI: < 33.9 nM
UACC-257 melanoma
  GI50: 333 nM
  TGI: 1470 nM
HCC-2998 colon
  GI50: < 19.2 nM
  TGI: < 38 nM
TK-10 renal
  GI50: < 16.3 nM
  TGI: < 25.9 nM
MALME-3M melanoma
  GI50: 690 nM
  TGI: 2220 nM
NCI-H522 lung
  GI50: 47.9 nM
  TGI: 427 nM
RPMI-8226 leukemia
  GI50: 3440 nM
  TGI: 14200 nM
DU-145 prostate
  GI50: < 46.2 nM
  TGI: 3980 nM
SK-OV-3 ovarian
  GI50: 278 nM
  TGI: 1150 nM
SK-MEL-28 melanoma
  TGI: 1660 nM

## O=C1NC(=Nc2ccc(O)cc2)S/C1=C\c1cccs1
EKVX NSCLC
  GI50: > 100000 nM
  TGI: > 100000 nM
SK-MEL-2 melanoma
  GI50: > 100000 nM
  TGI: > 100000 nM
NCI/ADR-RES ovarian
  GI50: > 100000 nM
  TGI: > 100000 nM
OVCAR-4 ovarian
  GI50: > 100000 nM
  TGI: > 100000 nM
COLO 205 colon
  GI50: > 100000 nM
  TGI: > 100000 nM
MDA-MB-231 breast
  GI50: > 100000 nM
  TGI: > 100000 nM
HT29 colon
  GI50: > 100000 nM
  TGI: > 100000 nM
HOP-92 NSCLC
  GI50: > 100000 nM
  TGI: > 100000 nM
NCI-H23 lung
  GI50: > 100000 nM
  TGI: > 100000 nM
UACC-257 melanoma
  GI50: > 100000 nM
  TGI: > 100000 nM
TK-10 renal
  GI50: > 100000 nM
  TGI: > 100000 nM
MALME-3M melanoma
  GI50: > 100000 nM
  TGI: > 100000 nM
SK-OV-3 ovarian
  GI50: > 100000 nM
  TGI: > 100000 nM
SK-MEL-28 melanoma
  GI50: > 100000 nM
  TGI: > 100000 nM

Reference: PubChem BioAssay (NCI)
